Data taken from US20240209028A1, “CNP COMPOUNDS” (priority 2022, published 2024).
In brackets after ≈: the same amount, converted by molar mass. Where two headings read alike, the source gives them in different places. Starred links: 1 amine or outer side, 2 acyl side, 3 side chain; linkers in the order of their positions; H or OH if unused. Positions of bridges follow the written chain, without caps; N, C: chain ends. Residues, ends and D or L forms follow the SMILES beside them. *: point of attachment. C18 diacid = O=C(O)CCCCCCCCCCCCCCCCC(=O)*; γGlu = O=C(O)[C@H](CCC(=O)[*:2])N[*:1]; X1 = O=C(CCCCCCCCCCCCCCCCc1nnn[nH]1)*; AEEA = NCCOCCOCC(=O)O

Experiments:
[1] = target: T1, human natriuretic peptide receptor 2 (hNPR2) (Homo sapiens, UniProt P20594); assay: In vitro hNPR2 activity assay (cGMP GloSensor reporter, HEK293); format: cell-based; conditions: potency relative to CNP22 (0065)
T1 construct: expressed in transfected cells; host or cells: HEK293 (ATCC CRL-1573), clone 35, co-transfected with pGloSensor-42F
T1 sequence (P20594 23-1047): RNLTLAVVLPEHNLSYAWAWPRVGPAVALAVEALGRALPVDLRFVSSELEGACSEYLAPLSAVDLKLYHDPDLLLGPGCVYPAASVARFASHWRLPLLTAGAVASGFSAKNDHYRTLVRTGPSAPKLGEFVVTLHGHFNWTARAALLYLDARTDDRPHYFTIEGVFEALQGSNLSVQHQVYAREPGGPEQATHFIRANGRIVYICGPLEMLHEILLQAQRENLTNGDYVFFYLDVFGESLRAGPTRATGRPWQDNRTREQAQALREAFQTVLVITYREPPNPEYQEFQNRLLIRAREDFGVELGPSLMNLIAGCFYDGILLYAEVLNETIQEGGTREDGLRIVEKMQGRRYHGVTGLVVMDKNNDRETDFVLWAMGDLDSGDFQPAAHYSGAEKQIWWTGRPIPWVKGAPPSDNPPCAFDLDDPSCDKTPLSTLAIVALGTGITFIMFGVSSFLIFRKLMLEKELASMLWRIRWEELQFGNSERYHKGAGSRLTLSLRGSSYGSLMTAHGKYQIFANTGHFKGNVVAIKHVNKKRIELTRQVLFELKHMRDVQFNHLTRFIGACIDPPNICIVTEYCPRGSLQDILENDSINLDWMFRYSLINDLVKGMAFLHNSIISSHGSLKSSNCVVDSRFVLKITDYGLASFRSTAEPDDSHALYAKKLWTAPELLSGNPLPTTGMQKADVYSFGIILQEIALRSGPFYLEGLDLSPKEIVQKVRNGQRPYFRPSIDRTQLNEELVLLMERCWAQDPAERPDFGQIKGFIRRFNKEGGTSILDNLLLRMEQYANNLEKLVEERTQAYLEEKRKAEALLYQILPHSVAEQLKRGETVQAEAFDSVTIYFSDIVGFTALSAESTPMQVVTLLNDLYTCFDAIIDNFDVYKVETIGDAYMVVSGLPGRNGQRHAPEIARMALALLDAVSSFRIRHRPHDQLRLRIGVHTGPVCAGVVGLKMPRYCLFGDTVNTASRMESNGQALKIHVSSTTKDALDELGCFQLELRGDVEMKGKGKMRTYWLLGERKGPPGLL
Outline: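 Potency is the EC50 from a four-parameter logistic fit, also expressed relative to the in-plate CNP22 control (×100), with at least two replicates. Compounds (ten concentrations, […], HSA-free diluent with 1% OVA, 0.01% Tween20) were incubated 30 min at 37 °C on HEK293 cells co-expressing hNPR2 and a GloSensor cGMP luciferase. Luminescence detected with Bright-Glo.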

[2] = Solubility of CNP compounds at pH 4.0 and pH 6.5; format: physicochemical
Outline: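 Freeze-dried peptide was brought to a nominal ≥4000-5000 nmol/mL in 5 mM sodium acetate, 250 mM glycerol (pH 4.0) or in 8 mM sodium phosphate, 23 mg/mL glycerol (pH 6.5 via NaOH titration). Samples were equilibrated at room temperature overnight if undissolved, and supernatant concentration was measured by CAD.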

[3] = 8 mM sodium phosphate, 23 mg/mL glycerol, pH 6.5, room temperature, read-out: Solubility at pH 6.5
[4] = 5 mM sodium acetate, 250 mM glycerol, pH 4.0, room temperature, read-out: Solubility at pH 4.0

Structure (SMILES)	hNPR2 0% HSA. [EC50% rel CNP] [1]	solubility [2, 3]	solubility [2, 4]
CC[C@H](C)[C@@H]1NC(=O)[C@H](CCCNC(=N)N)NC(=O)[C@H](CC(=O)O)NC(=O)[C@H](CC(C)C)NC(=O)[C@@H]2CCCN2C(=O)[C@H](CC(C)C)NC(=O)CNC(=O)[C@H](Cc2ccccc2)NC(=O)[C@@H](NC(=O)CNC(=O)[C@H](CCC(N)=O)NC(=O)[C@H](CO)NC(=O)[C@H](CC(C)C)NC(=O)CNC(=O)[C@H](CCCCN)NC(=O)[C@H](CCCCN)NC(=O)[C@H](CCC(N)=O)NC(=O)[C@H](C)NC(=O)CNC(=O)[C@H](CCCCN)NC(=O)[C@H](Cc2ccc(O)cc2)NC(=O)[C@H](CCCCN)NC(=O)[C@H](CCCNC(=N)N)NC(=O)[C@H](C)NC(=O)[C@H](CCC(N)=O)NC(=O)[C@@H]2CCCN2C(=O)[C@H](Cc2c[nH]cn2)NC(=O)[C@H](CCC(=O)O)NC(=O)[C@H](CCC(N)=O)NC(=O)COCCOCCNC(=O)COCCOCCNC(=O)COCCOCCNC(=O)COCCOCCNC(=O)CC[C@H](NC(=O)CC[C@H](NC(=O)CC[C@H](NC(=O)CC[C@H](NC(=O)CC[C@H](NC(=O)CC[C@H](NC(=O)CCCCCCCCCCCCCCCCC(=O)O)C(=O)O)C(=O)O)C(=O)O)C(=O)O)C(=O)O)C(=O)O)CSSC[C@@H](C(=O)O)NC(=O)CNC(=O)[C@H](CC(C)C)NC(=O)CNC(=O)[C@H](CO)NC(=O)[C@H](CC(C)C)NC(=O)[C@H](CO)NC(=O)CNC1=O [compound 1404] ({C18 diacid-γGlu-γGlu-γGlu-γGlu-γGlu-γGlu-AEEA-AEEA-AEEA-AEEA}-QEHPQARKYKGAQKKGLSQGCFGLPLDRIGSLSGLGC-OH; disulfide 21-37)	81.3%	6.88 mM (≈ 38.4 mg/mL)	
CC[C@H](C)[C@@H]1NC(=O)[C@H](CCCNC(=N)N)NC(=O)[C@H](CC(=O)O)NC(=O)[C@H](CC(C)C)NC(=O)[C@@H]2CCCN2C(=O)[C@H](CC(C)C)NC(=O)CNC(=O)[C@H](Cc2ccccc2)NC(=O)[C@@H](NC(=O)CNC(=O)[C@H](CCC(N)=O)NC(=O)[C@H](CO)NC(=O)[C@H](CC(C)C)NC(=O)CNC(=O)[C@H](CCCCN)NC(=O)[C@H](CCCCN)NC(=O)[C@H](CCC(N)=O)NC(=O)[C@H](C)NC(=O)CNC(=O)[C@H](CCCCN)NC(=O)[C@H](Cc2ccc(O)cc2)NC(=O)[C@H](CCCCN)NC(=O)[C@H](CCCNC(=N)N)NC(=O)[C@H](C)NC(=O)[C@H](CCC(N)=O)NC(=O)[C@@H]2CCCN2C(=O)[C@H](Cc2c[nH]cn2)NC(=O)[C@H](CCC(=O)O)NC(=O)[C@H](CCC(N)=O)NC(=O)COCCOCCNC(=O)COCCOCCNC(=O)COCCOCCNC(=O)COCCOCCNC(=O)CC[C@H](NC(=O)CC[C@H](NC(=O)CC[C@H](NC(=O)CC[C@H](NC(=O)CC[C@H](NC(=O)CCCCCCCCCCCCCCCCC(=O)O)C(=O)O)C(=O)O)C(=O)O)C(=O)O)C(=O)O)CSSC[C@@H](C(=O)O)NC(=O)CNC(=O)[C@H](CC(C)C)NC(=O)CNC(=O)[C@H](CO)NC(=O)[C@H](CC(C)C)NC(=O)[C@H](CO)NC(=O)CNC1=O [compound 1406] ({C18 diacid-γGlu-γGlu-γGlu-γGlu-γGlu-AEEA-AEEA-AEEA-AEEA}-QEHPQARKYKGAQKKGLSQGCFGLPLDRIGSLSGLGC-OH; disulfide 21-37)	59.1%	5.67 mM (≈ 30.9 mg/mL)	
CC[C@H](C)[C@@H]1NC(=O)[C@H](CCCNC(=N)N)NC(=O)[C@H](CC(=O)O)NC(=O)[C@H](CC(C)C)NC(=O)[C@@H]2CCCN2C(=O)[C@H](CC(C)C)NC(=O)CNC(=O)[C@H](Cc2ccccc2)NC(=O)[C@@H](NC(=O)CNC(=O)[C@H](CCCCN)NC(=O)[C@H](CO)NC(=O)[C@@H](NC(=O)CNC(=O)[C@@H](NC(=O)[C@H](Cc2c[nH]cn2)NC(=O)[C@H](CCC(N)=O)NC(=O)[C@H](C)NC(=O)CNC(=O)[C@H](Cc2c[nH]cn2)NC(=O)[C@H](Cc2ccc(O)cc2)NC(=O)[C@H](CCCCN)NC(=O)[C@H](CCCNC(=N)N)NC(=O)[C@H](C)NC(=O)COCCOCCNC(=O)COCCOCCNC(=O)CC[C@H](NC(=O)CC[C@H](NC(=O)CC[C@H](NC(=O)CCCCCCCCCCCCCCCCC(=O)O)C(=O)O)C(=O)O)C(=O)O)[C@@H](C)O)C(C)C)CSSC[C@@H](C(=O)O)NC(=O)CNC(=O)[C@H](CC(C)C)NC(=O)CNC(=O)[C@H](CO)NC(=O)[C@H](CC(C)C)NC(=O)[C@H](CO)NC(=O)CNC1=O [compound 1420] ({C18 diacid-γGlu-γGlu-γGlu-AEEA-AEEA}-ARKYHGAQHTGVSKGCFGLPLDRIGSLSGLGC-OH; disulfide 16-32)	87.5%	1.41 mM (≈ 6 mg/mL)	
CC[C@H](C)[C@@H]1NC(=O)[C@H](CCCNC(=N)N)NC(=O)[C@H](CC(=O)O)NC(=O)[C@H](CC(C)C)NC(=O)[C@@H]2CCCN2C(=O)[C@H](CC(C)C)NC(=O)CNC(=O)[C@H](Cc2ccccc2)NC(=O)[C@@H](NC(=O)CNC(=O)[C@H](CO)NC(=O)[C@H](CO)NC(=O)[C@@H](NC(=O)CNC(=O)[C@H](CCCCN)NC(=O)[C@H](CCCCN)NC(=O)[C@H](CCC(N)=O)NC(=O)[C@H](C)NC(=O)CNC(=O)[C@H](Cc2c[nH]cn2)NC(=O)[C@H](Cc2ccc(O)cc2)NC(=O)[C@H](CCCCN)NC(=O)[C@H](CCCNC(=N)N)NC(=O)[C@H](C)NC(=O)COCCOCCNC(=O)COCCOCCNC(=O)CC[C@H](NC(=O)CC[C@H](NC(=O)CC[C@H](NC(=O)CCCCCCCCCCCCCCCCC(=O)O)C(=O)O)C(=O)O)C(=O)O)C(C)C)CSSC[C@@H](C(=O)O)NC(=O)CNC(=O)[C@H](CC(C)C)NC(=O)CNC(=O)[C@H](CO)NC(=O)[C@H](CC(C)C)NC(=O)[C@H](CO)NC(=O)CNC1=O [compound 1422] ({C18 diacid-γGlu-γGlu-γGlu-AEEA-AEEA}-ARKYHGAQKKGVSSGCFGLPLDRIGSLSGLGC-OH; disulfide 16-32)	75.3%		8.29 mM (≈ 35.1 mg/mL)
CC[C@H](C)[C@@H]1NC(=O)[C@H](CCCNC(=N)N)NC(=O)[C@H](CC(=O)O)NC(=O)[C@H](CC(C)C)NC(=O)[C@@H]2CCCN2C(=O)[C@H](CC(C)C)NC(=O)CNC(=O)[C@H](Cc2ccccc2)NC(=O)[C@@H](NC(=O)CNC(=O)[C@H](CCC(N)=O)NC(=O)[C@H](CO)NC(=O)[C@H](CC(C)C)NC(=O)CNC(=O)[C@H](CO)NC(=O)[C@H](CCCCN)NC(=O)[C@H](CCC(N)=O)NC(=O)[C@H](C)NC(=O)CNC(=O)[C@H](Cc2c[nH]cn2)NC(=O)[C@H](Cc2ccc(O)cc2)NC(=O)[C@H](CCCCN)NC(=O)[C@H](CCCNC(=N)N)NC(=O)[C@H](C)NC(=O)COCCOCCNC(=O)COCCOCCNC(=O)CC[C@H](NC(=O)CC[C@H](NC(=O)CCCCCCCCCCCCCCCCc2nnn[nH]2)C(=O)O)C(=O)O)CSSC[C@@H](C(=O)O)NC(=O)CNC(=O)[C@H](CC(C)C)NC(=O)CNC(=O)[C@H](CO)NC(=O)[C@H](CC(C)C)NC(=O)[C@H](CO)NC(=O)CNC1=O [compound 1426] ({X1-γGlu-γGlu-AEEA-AEEA}-ARKYHGAQKSGLSQGCFGLPLDRIGSLSGLGC-OH; disulfide 16-32)	76.2%		11.2 mM (≈ 46.6 mg/mL)
CC[C@H](C)[C@@H]1NC(=O)[C@H](CCCNC(=N)N)NC(=O)[C@H](CC(=O)O)NC(=O)[C@H](CC(C)C)NC(=O)[C@@H]2CCCN2C(=O)[C@H](CC(C)C)NC(=O)CNC(=O)[C@H](Cc2ccccc2)NC(=O)[C@@H](NC(=O)CNC(=O)[C@H](CCC(N)=O)NC(=O)[C@H](CO)NC(=O)CNC(=O)CNC(=O)[C@H](CCCCN)NC(=O)[C@H](Cc2c[nH]cn2)NC(=O)[C@H](CCC(N)=O)NC(=O)[C@H](C)NC(=O)CNC(=O)[C@H](CCC(=O)O)NC(=O)[C@H](Cc2ccc(O)cc2)NC(=O)[C@H](CCCCN)NC(=O)[C@H](CCCNC(=N)N)NC(=O)[C@H](C)NC(=O)COCCOCCNC(=O)COCCOCCNC(=O)COCCOCCNC(=O)COCCOCCNC(=O)CC[C@H](NC(=O)CC[C@H](NC(=O)CCCCCCCCCCCCCCCCC(=O)O)C(=O)O)C(=O)O)CSSC[C@@H](C(=O)O)NC(=O)CNC(=O)[C@H](CC(C)C)NC(=O)CNC(=O)[C@H](CO)NC(=O)[C@H](CC(C)C)NC(=O)[C@H](CO)NC(=O)CNC1=O [compound 1432] ({C18 diacid-γGlu-γGlu-AEEA-AEEA-AEEA-AEEA}-ARKYEGAQHKGGSQGCFGLPLDRIGSLSGLGC-OH; disulfide 16-32)	26.0%	9.83 mM (≈ 43.2 mg/mL)	
